The values below come from patent publication US20240226191A1, “COMPOSITIONS AND METHODS FOR TREATING DISEASE” (MICROBA IP PTY LTD, priority 2021, published 2024).

Test [1] relates to mild to moderate flares of ulcerative colitis. To be noted: cited from earlier work.
A further test relates to T84 cells. Description: TEER recovery of barrier integrity after IFNγ (Maestro Pro system). It is filed as cell-based. To be noted: IFNγ for 72 hours, then treatment; extract relative to YG/V control. As to the method: The ability of MH23 to promote recovery of barrier integrity was also assessed by using the Maestro Pro system. Briefly, T84 cells were grown in (DMEM/F12) supplemented with 10% heat-inactivated foetal bovine serum and 1% Penicillin-Streptomycin in T75 flasks at 37° C., 5% C02 until approximately 75% confluent. Cells were seeded at a density of 0.1×10^6 cells in a total of 0.2 mL/well in 96-well CytoView-Z plates and incubated at 37° C., 5% C02 in the Maestro Pro system (Axion BioSystems, Atlanta, GA, USA). Media was refreshed every three days. Once stabile TEER measurements had been established (approximately 100 h after seeding), cells were stimulated with recombinant human IFNγ (100 ng/mL; R&D systems, Minneapolis, MN, USA). At 72 h post-stimulation, cells were washed with dPBS (ThermoFisher Scientific, Waltham, MA, USA) and media was replaced with DMEM/F12 only, or DMEM/F12 supplemented with Pyrrolidine dithiocarbamate (PDTC; 50 μM), 1×YG/V media control or 1×MH23-3 bacterial culture supernatant extracts prepared using Amberlite XAD-7 resin as previously outlined. All conditions were analysed as quadruplicates. At 5 h post-treatment, TEER measurements were recorded, and the observed effect of treatment was presented as the percentage difference in TEER value compared to the control (untreated T84 cells). Statistical significance was determined by unpaired t-test.

The subject of test [2] is IL-8 secretion in the human gut epithelial HCT116 cell line. The test is described as follows: IL-8 secretion ELISA in IL-1β treated HCT116 cells (NF-κB activation). In kind it is cell-based. To be noted: HCT116 cells treated with IL-1β; cell free CS relative to the medium control. As to the method: For the ELISA assays, 1×10^4 cells/well of HCT116 cells were seeded in duplicate 96 well plates. HCT116 cells were treated with IL-1β (10 ng) and indole-3-carbinol (5 μM) or culture supernatant (10% v/v) as appropriate and incubated at 37° C. for 16 hours. Then, cell supernatants were collected and analysed using an IL-8 human uncoated ELISA Kit according to the manufacturer's instructions.

The test system of test [3] is C57BL/6 female mice. Description: Acute murine model of DSS-induced gut barrier dysfunction (3% DSS). It is filed as in vivo, mouse. As to the method:
(§1) M. faecis and F. prausnitzii strains were grown to early stationary phase in TY medium. The cell density of the individual cultures was calculated using a Helber Counting Chamber. To prepare the bacterial gavage solutions, individual cultures were centrifuged under a layer of sterile heavy mineral oil at 5,000 g for 10 minutes and the cell-free supernatant was then discarded. The cell pellets were washed in 1.5 mL of sterile anaerobic buffered diluent (38 mL/L each of salt solutions 2 & 3 (McSweeney et al., 2005), 1 mL/L of 0.1% (w/v) resazurin solution, 1 g/L L-cysteine) and then centrifuged again. Finally, the washed cell pellet was resuspended in half strength glycerol solution (15% v/v glycerol solution in anoxic buffered diluent) to a final concentration of 1×10^9 cells/mL, aliquoted and frozen at −80° C. until required. The viability of the cell preparations was confirmed by thawing a single aliquot and streaking on an agar plate. The identity and purity of the individual strain preparations was confirmed by whole genome sequencing.
(§2) Six-week-old C57BL/6 female mice purchased from Animal Resources Centres (Western Australia, Australia) were randomised and then co-housed for seven days prior to experimentation. To induce gut barrier dysfunction, mice were treated with 3% DSS ad libiteum in the drinking water for six days. Naïve age matched control mice were processed and received DSS free drinking water. All treatments started one day prior to provision of DSS and all mice were sacrificed two days after the final DSS treatment. For the treatments, mice were anesthetised with isofluorane and orally gavaged with 200 μl of bacterial preparations or vehicle control. Prednisone (2 mg/kg) was administered following anesthetisation by intraperitoneal injection. Body weights and stool consistency were recorded daily. Stool samples were collected daily. Following sacrifice, the colon, liver and spleen were collected for analysis. Blood was collected by cardiac puncture. In the therapeutic model, six-week-old C57BL/6 female mice purchased from Animal Resources Centres (Western Australia, Australia) were randomised and then co-housed for seven days prior to experimentation. To induce gut barrier dysfunction, mice were treated with 2.5% DSS ad libiteum in the drinking water for six days. Naïve age matched control mice were processed and received DSS free drinking water. All treatments started two days prior to completion of the DSS treatments and all mice were sacrificed five days after the final DSS treatment. For the treatments, mice were anesthetised with isofluorane and orally gavaged with 200 μl of bacterial preparations or vehicle control. Prednisone (2 mg/kg) was administered following anesthetisation by intraperitoneal injection. […]

Test [4] has as its system C57BL/6 female mice. The test is described as follows: Therapeutic model of DSS induced murine colitis (2.5% DSS). To be noted: 2.5% DSS therapeutic model. In kind it is in vivo, mouse. As to the method: as §1, §2
In test [5] the test system is IL-23 mediated activation of STAT3. Description: HEK-Blue IL-23 reporter cell line STAT3 inducible SEAP reporter assay. In kind it is cell-based, human. To be noted: cell free culture supernatant (strains grown in TY medium); tofacitinib as inhibitor control. As to the method:
To assess STAT3 suppressive activity, three independent colonies were inoculated and grown until early stationary phase. Then, each seed culture broth was used to inoculate two technical replicates each generating six technical replicates from three biological replicates. The technical replicates were grown until early stationary phase and then cell free culture supernatant was harvested as previously described (Giri et al., 2019). Culture supernatants were size fractionated by passing through a 3 kDa CENTRICON® column according to the manufacturer's (Merck Millipore) instructions.
STAT3 activity was assessed using the HEK Blue IL-23 cell line (Invivogen). Briefly, 50,000 cells per well were seeded in triplicate in a 96-well plate 24 hours prior to the start of the assay. Bacteria supernatant or sterile bacterial medium were mixed at a final concentration of 10%, 25%, or 50% v/v with recombinant human IL-23 (rhIL-23, R&D systems) at a final concentration of 5 ng/mL. This mixture was then added directly to the cells and incubated at 37° C. for 6 hours. […] STAT3 regulated SEAP reporter activity was assessed using Quanti Blue solution as recommended by the manufacturer (Invivogen). […] Cytotoxicity was assessed using MTT assay. […] Cytotoxicity was assessed by measuring absorbance at 540 nm as recommended by the manufacturer (Invitrogen, Thermo Fisher, Australia).
In general terms: In a reporter assay the amount or activity of a reporter protein is the signal.

Another test deals with male BALB/c mice. Description: Acute murine model of TNBS-induced colitis. It is filed as in vivo, mouse. Here is the method: Groups of 5 or 10 male BALB/c mice were used. Mice were fasted overnight (Day 1) before 2,4,6-Trinitrobenzene sulfonic acid solution (TNBS challenge on Day 2. Distal colitis was induced by intracolonic instillation of TNBS (1 mg in 0.1 mL 50% ethanol) after which, animals were kept in a vertical position for 30 seconds to ensure that the solution remained in the colon. For the treatments, mice were orally gavaged with 200 μl of M. faecis MH23-3 at 1×10^9 cells/day or vehicle (sterile glycerol and phosphate salt solution) starting from Day 1 (i.e., 1 day before TNBS) to Day 5 for a total of 5 consecutive days (Days 1-5). The positive control Cyclosporin A was given at 75 mg/kg by oral gavage once daily from Day 1 (i.e., 1 day before TNBS) to Day 4 for a total of 4 consecutive days (Days 1-4). On the Day of TNBS challenge, vehicle, M. faecis MH-23.3 and Cyclosporine A were given at 2 hours before TNBS. Animals were sacrificed on Day 5; blood was collected from all animals by cardiac puncture. The colon tissue was also harvested and snap frozen with liquid nitrogen for cytokine measurement. On Day 5, the mice were euthanized by CO2 asphyxiation. Each colon was removed, rinsed, and then cut from 4 cm from the anus. The tissue sections were fixed in 10% formalin and kept in 70% ethanol for histopathology. […]

“Also recorded” adds a separate entry of the source.

For `Nc1ccc(O)c(C(=O)O)c1` [Mesalmine], the response rates in test [1] is 40%-70%.

Consider `S=C(S)N1CCCC1` [PDTC, Pyrrolidine dithiocarbamate], for which, in the test with T84 cells, the “TEER after IFNγ treatment (restoration of barrier integrity)” value is recorded as “ameliorated”.

As to `OCc1c[nH]c2ccccc12` [indole-3-carbinol], the IL-8 secretion entry in test [2] was “prevented”.

Regarding `C[C@]12C=CC(=O)C=C1CC[C@@H]1[C@@H]2C(=O)C[C@@]2(C)[C@H]1CC[C@]2(O)C(=O)CO` [prednisone], in the test with C57BL/6 female mice [3], the “disease pathology / histopathological score” value is listed as “significant improvement”, the epithelial injury entry is given as “ameliorated” and the inflammation score result is given as “ameliorated”. The DSS-induced weight loss entry in the test on C57BL/6 female mice [3] (daily treatment) is “exacerbated”. In the test with C57BL/6 female mice [4], the epithelial injury entry is “ameliorated”, the inflammation score result is “ameliorated” and the “pathology / histopathological score” value is listed as “ameliorated”. Besides, the endoscopic disease activity entry in the test on C57BL/6 female mice [4] (relative to the vehicle treatment group) was “significant reduction”.

For the molecule `C[C@@H]1CCN(C(=O)CC#N)C[C@@H]1N(C)c1ncnc2[nH]ccc12` [tofacitinib], in test [5], the “IL-23 mediated STAT3 activation (SEAP reporter activity)” value is recorded as “prevented; also recorded: inhibits”.

For cyclosporine A, the TNBS-induced histological damage result with male BALB/c mice is listed as “ameliorated”.
